Data reported in PubChem BioAssay (NCI).
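Values below derive from 48-hour exposures of cells grown in 96-well plates, with endpoints linearly interpolated between the two concentrations bracketing the appropriate inhibition level. TGI marks complete inhibition of growth.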

Key:
Assay in all cases: NCI tumour cell line growth inhibition, 48 h
HS 578T breast = tested on: HS 578T breast
T-47D breast = tested on: T-47D breast
MDA-N = tested on: MDA-N
P388/ADR leukemia = tested on: P388/ADR leukemia
HCT-15 colon = tested on: HCT-15 colon
XF 498 CNS = tested on: XF 498 CNS
SNB-78 CNS = tested on: SNB-78 CNS
SN12K1 renal = tested on: SN12K1 renal
KM20L2 colon = tested on: KM20L2 colon

| SMILES | TGI (HS 578T breast) | TGI (T-47D breast) | TGI (MDA-N) | TGI (P388/ADR leukemia) | TGI (HCT-15 colon) | TGI (XF 498 CNS) | TGI (SNB-78 CNS) | TGI (SN12K1 renal) | TGI (KM20L2 colon) |
| --- | --- | --- | --- | --- | --- | --- | --- | --- | --- |
| COc1cc2c(cc1OC)-c1cc3ccccc3c(=O)n1CC2 | 50.2 µM | 81.5 µM | > 100 µM |  |  |  |  |  |  |
| CCOC(=O)/C(O)=C1\C(=O)N(C)C(=O)C1c1cccc(OC)c1 (centres undefined) |  |  |  | > 100 µM | > 100 µM | > 100 µM | > 100 µM | > 100 µM | > 100 µM |
